Molecules are shown by their SMILES.

The assay deals with T1, human CRTH2 receptor (Homo sapiens, UniProt Q9Y5Y4).
T1 construct: host or cells: CHO-K1 (CHO-K1-hCRTH2 cells); membranes prepared in house from the purchased cell line
T1 sequence (Q9Y5Y4 1-395): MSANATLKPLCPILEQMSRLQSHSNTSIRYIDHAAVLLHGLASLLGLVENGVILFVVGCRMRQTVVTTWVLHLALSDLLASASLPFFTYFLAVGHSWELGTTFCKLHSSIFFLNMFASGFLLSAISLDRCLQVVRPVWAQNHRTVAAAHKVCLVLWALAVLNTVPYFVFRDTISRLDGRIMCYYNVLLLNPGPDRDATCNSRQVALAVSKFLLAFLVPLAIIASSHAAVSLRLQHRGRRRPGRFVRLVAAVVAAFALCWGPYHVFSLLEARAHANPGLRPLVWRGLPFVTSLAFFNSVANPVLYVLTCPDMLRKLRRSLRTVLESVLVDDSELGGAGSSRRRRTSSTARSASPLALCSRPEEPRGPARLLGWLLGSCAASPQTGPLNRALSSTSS
The experiment in a line: Human CRTH2 receptor membrane radioligand binding assay (SPA, [3H]-PGD2). The conditions noted are these: displacement of [3H]-PGD2 (1 nM) from CHO-K1-hCRTH2 cell membranes, 3 h room temperature. On the procedure: Preparation of Human CRTH2 Receptor Membranes and Radioligand Binding Assay
The binding of CRTH2 antagonists is determined using membranes prepared from Chinese hamster ovary cells (CHO-K1 cells) transfected with the human CRTH2 receptor (CHO-K1-hCRTH2 cells, Perkin Elmer, Cat No ES-561-C). To produce cell membranes the CHO-K1-hCRTH2 cells are cultured in suspension in CHO SFMII medium supplemented with 400 μg/ml G418. The cells are harvested by centrifugation at 300 g for 10 min at room temperature. The cell pellet is resuspended in Phosphate Buffer Saline (PBS) including a protease inhibitor mix (Complete, Roche) and adjusted to a concentration of 10E7 cells/ml. The CHO-K1-hCRTH2 cells are disrupted by nitrogen […] to obtain the membrane preparation. Cell debris is removed by centrifugation (500 g at 4° C., 30 min) and the supernatant is transferred into fresh tubes followed by a second centrifugation at 40000 g for 1 h at 4° C. to sediment the membranes. The membranes are suspended in SPA incubation buffer (50 mM Tris HCl, 10 mM MgCl2, 150 mM NaCl, 1 mM EDTA, pH 7.4) without bovine serum albumin, homogenized by passing through a single use needle (Terumo, 23G×1″), and stored in aliquots at −80° C.
The CRTH2 receptor binding assay is performed in a scintillation proximity assay (SPA) format with the radioligand [^3H]-PGD2 (Perkin Elmer, NET616000MC). CHO-K1-hCRTH2 cell membranes are again homogenized by passing through a single use needle (Terumo, 23G×1″) and diluted in SPA incubation buffer in suitable concentrations (0.5-10 μg protein/well). The SPA assay is set up in 96 well microtiter plates (Perkin Elmer, CatNo. 6005040) in SPA incubation buffer with a final volume of 200 μl per well and final concentration of 50 mM Tris-HCl, 10 mM MgCl2, 150 mM NaCl, 1 mM EDTA pH 7.4, 0.1% bovine serum albumin). The SPA assay mixture contains 60 μl of the membrane suspension, 80 μl of Wheat Germ Agglutinin coated PVT beads (GE Healthcare, RPNQ-0001, 0.3 mg/well), 40 μl of [3H]-PGD2 diluted in SPA buffer to a final concentration of 1 nM (50 000 dpm) and 20 μl of the test compound (dissolved in dimethylsulfoxid). The SPA assay mixture is incubated for 3 h at room temperature. Bound radioactivity is determined with a scintillation counter (Micro Beta Trilux, Wallac).
The binding of [^3H]-PGD2 to CHO-K1-hCRTH2 cell membranes is determined in the absence (total binding, Bo) and presence (non-specific binding, NSB) of unlabelled PGD2 (1 μM, Cayman Chemical, Cat No 12010) or a reference CRTH2 antagonist (10 μM CAY10471, Cayman Chemical, Cat No 10006735).
Determination of the affinity of a test compound is calculated by subtraction of the non-specific binding (NSB) from the total binding (Bo) or the binding in the presence of the test compound (B) at a given compound concentration. […] The Bo−NSB value is set to 0% inhibition.
Take `Cc1cc2ccccc2cc1C(=O)Nc1ccc(Cn2nc(C)c(CC(=O)O)c2C)cc1` [Example 1.25]: the Ki was 3.1 nM. The figure for `Cc1nn(Cc2ccc(C(=O)Nc3cccc(F)c3)cc2)c(C)c1CC(=O)O` [Example 9.1] is 1480 nM. In turn, `Cc1nn(Cc2ccc(NC(=O)c3ccc(Cl)c(Cl)c3)cc2)c(C)c1CCC(=O)O` [Example 8.6] returned a Ki of 126 nM. The result for `Cc1nn(Cc2ccc(CS(=O)(=O)c3ccc(C(F)(F)F)cc3)cc2)c(C)c1CC(=O)O` [Example 16.3] reads 2290 nM.

In the case of `Cc1cc(Cn2nc(C)c(CC(=O)O)c2C)ccc1NC(=O)c1ccc(Cl)cc1` [Example 7.2], the Ki came to 162 nM. On to `Cc1nn(Cc2ccc(NS(=O)(=O)c3ccccc3)cc2)c(C)c1CC(=O)O` [Example 5.1], for which the Ki turned out to be 43.9 nM. `CCc1nn(Cc2ccc(C(=O)N[C@H]3CC[C@H](c4ccccc4)CC3)cc2)c(CC)c1CC(=O)O` [Example 9.21]: the Ki was determined as 7.8 nM. The result for `CCc1nn(Cc2ccc(NC(=O)c3ccc4ccccc4c3Br)cc2)c(CC)c1CC(=O)O` [Example 2.26] reads 3.6 nM; that for `Cc1nn(Cc2ccc(NS(=O)(=O)c3ccc(Cl)c(Cl)c3)cc2)c(C)c1CC(=O)O` [Example 5.3], 30.6 nM. Consider `Cc1nn(Cc2ccc(C(C)Oc3ccc(C(F)(F)F)cc3)cc2)c(C)c1CC(=O)O` (stereo not shown) [Example 14.5], for which the Ki was 253 nM. `Cc1nn(Cc2ccc(NC(=O)CCc3ccccc3)cc2Cl)c(C)c1CC(=O)O` [Example 7.9] returned a Ki of 2.5 nM. The compound `Cc1nn(Cc2ccc(NC(=O)c3ccc(Cl)cc3)cc2Cl)c(C)c1CC(=O)O` [Example 7.6] had a Ki of 1.2 nM. `COc1ccc(COc2ccc(Cn3nc(C)c(CC(=O)O)c3C)cc2)cc1C(F)(F)F` [Example 13.6] yielded a Ki of 28.9 nM. Compound `Cc1nn(Cc2ccc(NC(=O)/C=C/c3ccc(Cl)cc3)cc2)c(C)c1CC(=O)O` [Example 1.14] yielded a Ki of 1.1 nM. The figure for `CCc1nn(Cc2ccc(C(=O)NC3CCC(C(C)(C)C)CC3)cc2)c(CC)c1CC(=O)O` (stereo not shown) [Example 9.26] is 39.4 nM; for `CCc1nn(Cc2ccc(NC(=O)OCc3ccccc3Cl)cc2)c(CC)c1CC(=O)O` [Example 3.10] it is 5.2 nM; for `CCc1nn(Cc2ccc(NC(=O)c3ccc(Cl)cc3C)cc2)c(CC)c1CC(=O)O` [Example 2.2] it is 1.1 nM. The figure for `CCc1nn(Cc2ccc(OCc3ccc(OC)c(C(F)(F)F)c3)cc2)c(CC)c1CC(=O)O` [Example 13.12] is 5 nM; for `CCc1nn(Cc2ccc(C(=O)Nc3ccc(Cl)c(F)c3)cc2)c(CC)c1CC(=O)O` [Example 9.11] it is 7.1 nM. Turning to `O=C(O)Cc1c(-c2ccccc2)nn(Cc2ccc(NC(=O)c3ccc(C(F)(F)F)cc3)cc2)c1-c1ccccc1` [Example 2.45], the Ki worked out at 8.9 nM. `Cc1cc(Cn2nc(C)c(CC(=O)O)c2C)ccc1NC(=O)c1ccc(Cl)c(Cl)c1` [Example 7.4] displayed a Ki of 2.2 nM. The figure for `CCc1nn(Cc2ccc(/C=C/c3ccc(Cl)cc3)cc2)c(CC)c1CC(=O)O` [Example 12.3] is 12.3 nM; for `Cc1nn(Cc2ccc(S(=O)(=O)Nc3ccc(F)cc3)cc2)c(C)c1CC(=O)O` [Example 10.1] it is 2.6 nM; for `COc1ccc(CCNS(=O)(=O)c2ccc(Cn3nc(C)c(CC(=O)O)c3C)cc2)cc1OC` [Example 10.2] it is 742 nM. The figure for `Cc1nn(Cc2ccc(NC(=O)C3CCCCC3)cc2)c(C)c1CC(=O)O` [Example 1.33] is 29.8 nM. With `CCc1nn(Cc2ccc(NC(=O)OCc3ccc4ccccc4c3)cc2)c(CC)c1CC(=O)O` [Example 3.12], the Ki came out at 0.1 nM.

`CCc1nn(Cc2ccc(OCc3cc(Cl)cc(Cl)c3)cc2)c(CC)c1CC(=O)O` [Example 13.8] displayed a Ki of 15.5 nM. As for `Cc1nn(Cc2ccc(NC(=O)OCc3ccccc3)cc2F)c(C)c1CC(=O)O` [Example 3.14], the Ki came to 8.9 nM.

For `COc1ccc(C(=O)Nc2ccc(Cn3nc(C)c(CC(=O)O)c3C)cc2)cc1` [Example 1.5], the Ki worked out at 12.9 nM. Consider `Cc1nn(Cc2ccc(C(=O)Nc3ccc(Cl)c(F)c3)cc2)c(C)c1CC(=O)O` [Example 9.2], for which the Ki came out at 24.5 nM. The result for `Cc1nn(Cc2ccc(NC(=O)c3ccc(Cl)c(Cl)c3)cc2Cl)c(C)c1CC(=O)O` [Example 7.15] reads 0.6 nM; that for `Cc1nn(Cc2ccc(NC(=O)c3ccc(C(F)(F)F)cc3)cc2)c(C)c1CC(=O)NS(=O)(=O)C(C)(C)C` [Example 11.1], 29.4 nM. The result for `CCc1nn(Cc2ccc(C(=O)Nc3ccc(Cl)c(C(F)(F)F)c3)cc2)c(CC)c1CC(=O)O` [Example 9.13] reads 0.9 nM. The result for `Cc1cc(C(F)(F)F)ccc1C(=O)Nc1ccc(Cn2nc(C)c(CC(=O)O)c2C)cc1` [Example 1.11] reads 2.7 nM; that for `Cc1nn(Cc2ccc(C(C)Oc3ccc(Cl)c(Cl)c3)cc2)c(C)c1CC(=O)O` (stereo not shown) [Example 14.4], 29 nM. On to `CCc1ccccc1C(=O)Nc1ccc(Cn2nc(CC)c(CC(=O)O)c2CC)cc1` [Example 2.23], for which the affinity, expressed as Ki, was 6.1 nM. Compound `CCc1nn(Cc2ccc(NC(=O)c3cccc4ccccc34)cc2)c(C2CC2)c1CC(=O)O` [Example 2.48] yielded a Ki of 1.8 nM.

`Cc1ccc(C(=O)Nc2ccc(Cn3nc(C)c(CC(=O)O)c3C)cc2)cc1` [Example 1.4] returned a Ki of 7.7 nM. The result for `Cc1nn(Cc2ccc(C(=O)Nc3ccc(Br)c(F)c3)cc2)c(C)c1CC(=O)O` [Example 9.9] reads 19.4 nM.

`Cc1c(CC(=O)O)c(C2CCCCC2)nn1Cc1ccc(NC(=O)c2ccc(C(F)(F)F)cc2)cc1` [Example 2.7] registered a Ki of 12.9 nM. In the case of `CCc1nn(Cc2ccc([S+]([O-])Cc3ccccc3)cc2)c(CC)c1CC(=O)O` (stereo not shown) [Example 19.4], the Ki was determined as 48.8 nM. As for `Cc1nn(Cc2ccc(NCc3ccccc3)cc2)c(C)c1CC(=O)O` [Example 6.2], the Ki was 311 nM.

`Cc1nn(Cc2ccc(NC(=O)c3ccc(Br)cc3Cl)cc2)c(C)c1CC(=O)O` [Example 1.27] registered a Ki of 9.3 nM. The figure for `Cc1nn(Cc2ccc(NC(=O)c3ccc(Cl)c(Cl)c3)cc2)c(C)c1CC(=O)O` [Example 1.8] is 2.6 nM; for `Cc1ccc(C(=O)Nc2ccc(Cn3nc(C)c(CC(=O)O)c3C)c(Cl)c2)c(C)c1` [Example 7.12] it is 4.7 nM. The figure for `Cc1nn(Cc2ccc(C[S+]([O-])c3ccc(C(F)(F)F)cc3)cc2)c(C)c1CC(=O)O` (stereo not shown) [Example 16.2] is 324 nM; for `Cc1nn(Cc2ccc(NC(=O)c3ccc4ccccc4c3)cc2)c(-c2ccccc2)c1CC(=O)O` [Example 2.8] it is 1.3 nM. The compound `Cc1nn(Cc2ccc(COc3ccc(C(F)(F)F)cc3)cc2)c(C)c1CC(=O)O` [Example 14.1] returned a Ki of 1530 nM. The figure for `Cc1nn(Cc2ccc(C(C)Oc3ccccc3)cc2)c(C)c1CC(=O)O` (stereo not shown) [Example 14.6] is 428 nM.

In turn, `Cc1cc(NC(=O)c2ccc3ccccc3c2)ccc1Cn1nc(C)c(CC(=O)O)c1C` [Example 7.5] came in with a Ki of 0.3 nM. `Cc1nn(Cc2ccc(C(O)Cc3ccccc3)cc2)c(C)c1CC(=O)O` (stereo not shown) [Example 15.1]: the affinity corresponds to a Ki of 785 nM.

For `Cc1nn(Cc2ccc(/C=C/c3ccc(C(F)(F)F)cc3)cc2)c(C)c1CC(O)O` [Example 12.2], the Ki is 56.3 nM.

(Values after patent US20140148484A1, “PYRAZOLE COMPOUNDS FOR TREATING HAIRLOSS” (Boehringer Ingelheim International GmbH, priority 2012, published 2014).)
